Reference: ChEMBL document CHEMBL1147619, “Syntheses and EGFR kinase inhibitory activity of 6-substituted-4-anilino [1,7] and [1,8] naphthyridine-3-carbonitriles” (Bioorg Med Chem Lett, 2004)
Values after ≈ are worked out from the molar mass of the structure shown.

How the values were obtained:
[1] = target: T1, Epidermal growth factor receptor (Homo sapiens, UniProt P00533); assay: Inhibition of epidermal growth factor receptor kinase autophosphorylation
[2] = target: T1, Epidermal growth factor receptor; assay: Inhibition of peptide substrate phosphorylation by epidermal growth factor receptor
A-431 = assay: Inhibition of A431 human carcinoma cell proliferation; format: functional, cell-based
SW-620 = assay: Inhibition of SW620 human carcinoma cell proliferation; format: functional, cell-based
SK-BR-3 = assay: Inhibition of SKBr3 human carcinoma cell proliferation; format: functional, cell-based

T1 sequence (P00533 whole entry): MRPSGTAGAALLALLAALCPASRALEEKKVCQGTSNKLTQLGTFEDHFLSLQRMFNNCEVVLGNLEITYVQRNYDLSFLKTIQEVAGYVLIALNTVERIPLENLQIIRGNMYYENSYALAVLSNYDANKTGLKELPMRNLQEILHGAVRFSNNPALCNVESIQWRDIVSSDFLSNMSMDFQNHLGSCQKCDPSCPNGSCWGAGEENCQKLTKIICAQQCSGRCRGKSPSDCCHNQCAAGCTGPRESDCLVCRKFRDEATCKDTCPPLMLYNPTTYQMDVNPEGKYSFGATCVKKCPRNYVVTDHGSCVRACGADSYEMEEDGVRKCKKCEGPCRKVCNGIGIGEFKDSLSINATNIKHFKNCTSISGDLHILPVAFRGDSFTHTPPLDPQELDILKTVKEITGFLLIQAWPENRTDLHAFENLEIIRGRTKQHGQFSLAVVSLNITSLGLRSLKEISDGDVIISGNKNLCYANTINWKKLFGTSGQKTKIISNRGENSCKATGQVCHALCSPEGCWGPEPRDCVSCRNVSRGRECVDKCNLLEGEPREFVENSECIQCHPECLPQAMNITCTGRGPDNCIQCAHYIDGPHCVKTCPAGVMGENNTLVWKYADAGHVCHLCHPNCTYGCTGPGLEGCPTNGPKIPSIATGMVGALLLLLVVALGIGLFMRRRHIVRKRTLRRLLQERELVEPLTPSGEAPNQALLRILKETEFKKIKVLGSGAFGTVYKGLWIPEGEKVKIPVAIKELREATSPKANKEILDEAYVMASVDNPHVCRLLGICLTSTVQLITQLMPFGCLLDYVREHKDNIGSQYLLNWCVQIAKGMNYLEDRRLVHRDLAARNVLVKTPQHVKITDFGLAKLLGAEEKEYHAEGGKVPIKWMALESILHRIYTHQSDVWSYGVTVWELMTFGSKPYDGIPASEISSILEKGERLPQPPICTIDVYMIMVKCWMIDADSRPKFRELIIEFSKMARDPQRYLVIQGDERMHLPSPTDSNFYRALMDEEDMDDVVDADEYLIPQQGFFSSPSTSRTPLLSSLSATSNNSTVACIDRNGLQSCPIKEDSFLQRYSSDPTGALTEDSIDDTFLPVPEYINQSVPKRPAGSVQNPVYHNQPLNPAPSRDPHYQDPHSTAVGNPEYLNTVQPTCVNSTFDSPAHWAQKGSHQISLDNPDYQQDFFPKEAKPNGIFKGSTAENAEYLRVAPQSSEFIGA

Row | SMILES | IC50 [1] | IC50 [2] | IC50 (A-431) | IC50 (SW-620) | IC50 (SK-BR-3)
1 | C=CC(=O)Nc1cnc2ncc(C#N)c(Nc3cccc(Br)c3)c2c1 | 976 nM | 375 nM | – | – | –
2 | CC#CC(=O)Nc1ccc2ncc(C#N)c(Nc3cccc(Br)c3)c2c1 | > 1000 nM | 259 nM | – | – | –
3 | CN(C)CCOc1cc2c(Nc3cccc(Br)c3)c(C#N)cnc2cn1 | > 10000 nM | > 10000 nM | – | – | –
4 | CN(C)C/C=C/C(=O)Nc1cc2c(Nc3cccc(Br)c3)c(C#N)cnc2cn1 | 8.6 nM | 1.9 nM | 0.088 µg/mL (≈ 0.195 µM) | 0.356 µg/mL (≈ 0.789 µM) | 0.036 µg/mL (≈ 0.0798 µM)
5 | CN(C)CCOc1cc2c(Nc3ccc(F)c(Cl)c3)c(C#N)cnc2cn1 | > 10000 nM | > 10000 nM | – | – | –
6 | CC#CC(=O)Nc1cnc2ncc(C#N)c(Nc3cccc(Br)c3)c2c1 | > 10000 nM | 6270 nM | – | – | –

The remaining compounds from weak to strong by IC50 [1], led by results:

Row | IC50 [1] | IC50 [2] | IC50 (A-431) | IC50 (SW-620) | IC50 (SK-BR-3) | SMILES
7 | 6790 nM | 3760 nM | – | – | – | CC#CC(=O)Nc1cnc2ncc(C#N)c(Nc3ccc(F)c(Cl)c3)c2c1
8 | 4130 nM | 2040 nM | 2.76 µg/mL (≈ 6.12 µM) | > 5 µg/mL | 4.83 µg/mL (≈ 10.7 µM) | CN(C)C/C=C/C(=O)Nc1cnc2ncc(C#N)c(Nc3cccc(Br)c3)c2c1
9 | 1030 nM | 330 nM | – | – | – | CC#CC(=O)Nc1ccc2ncc(C#N)c(Nc3ccc(F)c(Cl)c3)c2c1
10 | 123 nM | 37.2 nM | 0.23 µg/mL (≈ 0.511 µM) | 2.8 µg/mL (≈ 6.22 µM) | 0.089 µg/mL (≈ 0.198 µM) | CN(C)C/C=C/C(=O)Nc1ccc2ncc(C#N)c(Nc3cccc(Br)c3)c2c1
11 | 86.9 nM | 9.7 nM | – | – | – | C=CC(=O)Nc1ccc2ncc(C#N)c(Nc3cccc(Br)c3)c2c1
